The subject of data set [1] is Zika virus. The experiment in a line: Antiviral activity against Zika virus French Polynesia infected in human A549 cells assessed as reduction in viral RNA at 5 uM measured after 24 to 72 hrs post infection by RT-qPCR analysis. In kind it is functional, organism-based.
For data set [2], the system named is Zika virus. The experiment in a line: Antiviral activity against Zika virus Uganda infected in human A549 cells assessed as reduction in viral RNA at 5 uM measured after 24 to 72 hrs post infection by RT-qPCR analysis. In kind it is functional, organism-based. (Quantitative PCR measures a nucleic acid by following its amplification.)
The test system of a further data set is A549. In words: Cytotoxicity against human A549 cells assessed as reduction in cell viability up to 5 uM by Presto blue cell viability reagent based assay.
The target of data set [3] is Nonstructural protein 3 (Zika virus) (UniProt A0A024AXB9). In words: Inhibition of N-terminal hexa-histidine tagged Zika virus NS2B/NS3 protease expressed in Escherichia coli BL21-Gold (DE3) at 20 uM using fluorogenic AMC-substituted peptide boc-GRR-7-amino-4-methylcoumarin measured every 30 secs for 10 mins by fluorometric assay relative to control.
Data set [4] relates to dengue virus type 2. The experiment in a line: Inhibition of N-terminal hexa-histidine tagged Dengue virus 2 NS2B/NS3 protease I30A/L31A mutant expressed in Escherichia coli BL21-Gold (DE3) at 20 uM using fluorogenic AMC-substituted peptide boc-GRR-7-amino-4-methylcoumarin measured every 30 secs for 10 mins by fluorometric assay relative to control.
Data set [5] concerns Zika virus. The experiment in a line: Antiviral activity against Zika virus Uganda infected in African green monkey Vero cells assessed as reduction in plaque forming units at 5 uM measured after 96 hrs by crystal violet staining based assay. In kind it is functional, organism-based.
In data set [6] the test system is Zika virus. The experiment in a line: Antiviral activity against Zika virus French Polynesia infected in African green monkey Vero cells assessed as reduction in plaque forming units at 5 uM measured after 96 hrs by crystal violet staining based assay. In kind it is functional, organism-based.
Data set [7] has as its system Zika virus. The experiment in a line: Antiviral activity against Zika virus infected in human A549 cells assessed as induction of redistribution of the ZIKV Env protein from ER to cytoplasm at 0.5 uM by confocal scanning microscopy. In kind it is functional, organism-based.
Data set [8] deals with Zika virus. The experiment in a line: Antiviral activity against Zika virus infected in African green monkey Vero cells assessed as suppression of viral replication at 10 uM pre-incubated with cells for 1 hr before viral infection and measured after 4 days by RT-qPCR analysis. The class given is functional, organism-based.
Data set [9] concerns dengue virus type 2. The experiment in a line: Antiviral activity against Dengue virus 2 infected in African green monkey Vero cells assessed as suppression of viral replication at 10 uM pre-incubated with cells for 1 hr before viral infection and measured after 4 days by RT-qPCR analysis. In kind it is functional, organism-based.
A short description of data set [10]: Drug metabolism in rat liver microsomes assessed as formation of (R)-N-(5,6-Dimethoxybenzo[d]thiazol-2-yl)-1-((4-(hydroxymethyl) phenyl) sulfonyl)pyrrolidine-2-carboxamide in presence of NADPH generating system by LC-MS/MS analysis. The class given is ADME, Microsome. Background: Liver microsomes are vesicles of endoplasmic reticulum, rich in cytochrome P450 enzymes.

The nature of data set [11]: Drug metabolism in rat liver microsomes assessed as formation of (S)-N-(5,6-Dimethoxybenzo[d]thiazol-2-yl)-1-((4-(hydroxymethyl) phenyl) sulfonyl)pyrrolidine-2-carboxamide in presence of NADPH generating system by LC-MS/MS analysis. The class given is ADME, Microsome.
A short description of data set [12]: Drug metabolism in rat liver microsomes assessed as formation of (S)-1-Benzoyl-N-(5,6-dihydroxybenzo[d]thiazol-2-yl)pyrrolidine-2-carboxamide in presence of NADPH generating system by LC-MS/MS analysis. The class given is ADME, Microsome.
The nature of data set [13]: Drug metabolism in rat liver microsomes assessed as formation of (R)-N-(5,6-Dihydroxybenzo[d]thiazol-2-yl)-1-tosylpyrrolidine-2-carboxamide in presence of NADPH generating system by LC-MS/MS analysis. The class given is ADME, Microsome.
Data set [14] in a line: Permeability in human C2BBe1 cells at 10 uM incubated for 3 hrs by LC-MS analysis relative to control. In kind it is ADME, cell-based. To be noted: c2bbe1, 3 h.
The target of data set [15] is T1, Nonstructural protein 3 (Zika virus, UniProt A0A024AXB9). In words: Inhibition of Zika virus NS2B/NS3 protease.
The target in data set [16] is T1, Nonstructural protein 3. The experiment in a line: Inhibition of N-terminal hexa-histidine tagged Zika virus NS2B/NS3 protease expressed in Escherichia coli BL21-Gold (DE3) using fluorogenic AMC-substituted peptide boc-GRR-7-amino-4-methylcoumarin measured every 30 secs for 10 mins by fluorometric assay.
Data set [17] can be described thus: Inhibition of N-terminal hexa-histidine tagged Dengue virus 2 NS2B/NS3 protease I30A/L31A mutant expressed in Escherichia coli BL21-Gold (DE3) using fluorogenic AMC-substituted peptide boc-GRR-7-amino-4-methylcoumarin measured every 30 secs for 10 mins by fluorometric assay. Also noted: species or system dengue virus type 2.
The nature of data set [18]: Inhibition of N-terminal hexa-histidine tagged Dengue virus 2 NS2B/NS3 protease I30A/L31A mutant expressed in Escherichia coli BL21-Gold (DE3) in presence of N-benzylmaleimide using fluorogenic AMC-substituted peptide boc-GRR-7-amino-4-methylcoumarin measured every 30 secs for 10 mins by fluorometric assay. Also noted: species or system dengue virus type 2.
Data set [19] in a line: Inhibition of N-terminal hexa-histidine tagged Dengue virus 2 NS2B/NS3 protease I30A/L31A mutant expressed in Escherichia coli BL21-Gold (DE3) in presence of N-ethylmaleimide using fluorogenic AMC-substituted peptide boc-GRR-7-amino-4-methylcoumarin measured every 30 secs for 10 mins by fluorometric assay. Also noted: species or system dengue virus type 2.
Data set [20] is described as follows: Inhibition of N-terminal hexa-histidine tagged Dengue virus 2 NS2B/NS3 protease I30A/L31A/T118C mutant expressed in Escherichia coli BL21-Gold (DE3) using fluorogenic AMC-substituted peptide boc-GRR-7-amino-4-methylcoumarin measured every 30 secs for 10 mins by fluorometric assay. Also noted: species or system dengue virus type 2.
A short description of data set [21]: Inhibition of N-terminal hexa-histidine tagged Dengue virus 2 NS2B/NS3 protease I30A/L31A/T118C mutant expressed in Escherichia coli BL21-Gold (DE3) in presence of N-benzylmaleimide using fluorogenic AMC-substituted peptide boc-GRR-7-amino-4-methylcoumarin measured every 30 secs for 10 mins by fluorometric assay. Also noted: species or system dengue virus type 2.

The nature of data set [22]: Inhibition of N-terminal hexa-histidine tagged Dengue virus 2 NS2B/NS3 protease I30A/L31A/T120C mutant expressed in Escherichia coli BL21-Gold (DE3) using fluorogenic AMC-substituted peptide boc-GRR-7-amino-4-methylcoumarin measured every 30 secs for 10 mins by fluorometric assay. Also noted: species or system dengue virus type 2.
A short description of data set [23]: Inhibition of N-terminal hexa-histidine tagged Dengue virus 2 NS2B/NS3 protease I30A/L31A/T120C mutant expressed in Escherichia coli BL21-Gold (DE3) in presence of N-benzylmaleimide using fluorogenic AMC-substituted peptide boc-GRR-7-amino-4-methylcoumarin measured every 30 secs for 10 mins by fluorometric assay. Also noted: species or system dengue virus type 2.

The nature of data set [24]: Inhibition of N-terminal hexa-histidine tagged Dengue virus 2 NS2B/NS3 protease I30A/L31A/T120C mutant expressed in Escherichia coli BL21-Gold (DE3) in presence of N-ethylmaleimide using fluorogenic AMC-substituted peptide boc-GRR-7-amino-4-methylcoumarin measured every 30 secs for 10 mins by fluorometric assay. Also noted: species or system dengue virus type 2.
Data set [25] can be described thus: Inhibition of N-terminal hexa-histidine tagged Dengue virus 2 NS2B/NS3 protease I30A/L31A/T122C mutant expressed in Escherichia coli BL21-Gold (DE3) using fluorogenic AMC-substituted peptide boc-GRR-7-amino-4-methylcoumarin measured every 30 secs for 10 mins by fluorometric assay. Also noted: species or system dengue virus type 2.
Data set [26] in a line: Inhibition of N-terminal hexa-histidine tagged Dengue virus 2 NS2B/NS3 protease I30A/L31A/T122C mutant expressed in Escherichia coli BL21-Gold (DE3) in presence of N-benzylmaleimide using fluorogenic AMC-substituted peptide boc-GRR-7-amino-4-methylcoumarin measured every 30 secs for 10 mins by fluorometric assay. Also noted: species or system dengue virus type 2.
Data set [27] can be described thus: Inhibition of N-terminal hexa-histidine tagged Dengue virus 2 NS2B/NS3 protease I30A/L31A/T122C mutant expressed in Escherichia coli BL21-Gold (DE3) in presence of N-ethylmaleimide using fluorogenic AMC-substituted peptide boc-GRR-7-amino-4-methylcoumarin measured every 30 secs for 10 mins by fluorometric assay. Also noted: species or system dengue virus type 2.

Data set [28] has as its target T1, Nonstructural protein 3. The experiment in a line: Non-competitive inhibition of N-terminal hexa-histidine tagged Zika virus NS2B/NS3 protease expressed in Escherichia coli BL21-Gold (DE3) using 50 to 200 uM fluorogenic AMC-substituted peptide boc-GRR-7-amino-4-methylcoumarin measured every 30 secs for 10 mins by fluorometric assay based Dixon plot analysis.

Calls of active or inactive are those of the source. The rule behind the calls is not given here.

Broadly, the IC50 is the concentration that gives 50% inhibition.

T1 sequence (A0A024AXB9 whole entry): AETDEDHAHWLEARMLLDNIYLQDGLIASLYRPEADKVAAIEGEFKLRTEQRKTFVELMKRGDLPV
Sequence of Nonstructural protein 3 (Zika virus) (A0A024AXB9 as listed by the source): as the sequence (A0A024AXB9 whole entry) above

With `COc1ccc2cc(Oc3ccccc3C(=O)Nc3nc4cc(OC)c(OC)cc4s3)ccc2c1`, the result with Zika virus [1], in the data set with Zika virus [2], in the data set with Zika virus [5], in the data set on Zika virus [6] and in the data set on Zika virus [7] was Active. The Activity entry in the data set on A549 was “Non-Toxic”. Moreover, the inhibition entry (in data set [3]; with dengue virus type 2 [4]) was “inactive” in each case. For the same molecule, the result in the data set on Zika virus [8] was inactive.

Turning to `COc1cc2nc(NC(=O)[C@H]3CCCN3S(=O)(=O)c3ccc(C)cc3)sc2cc1OC`, the outcome in the data set on Zika virus [1], in the data set on Zika virus [2] and with Zika virus [8] was inactive. For the same molecule, the Activity entry in the data set with A549 is recorded as “Non-Toxic”. Further, in the data set with dengue virus type 2 [9], the outcome was Active. The Drug metabolism entry in [10], in data set [11], in [12] and in data set [13] was “Metabolite_Detected” in each case. For the same molecule, the permeability in [14] was 91%.

Turning to `O=C(Nc1nc2cc(O)c(O)cc2s1)c1ccccc1Oc1ccc2cc(O)ccc2c1`, the outcome with Zika virus [1], with Zika virus [2], with Zika virus [7] and in the data set with Zika virus [8] was inactive. Besides, the Activity result in the data set with A549 was “Non-Toxic”. In addition, the IC50 at Nonstructural protein 3 [15] is 1.42 µM; at Nonstructural protein 3 [16], 1.41 µM; in data set [17], 4.2 to 4.22 µM; in [18] it was 4.96 µM; in [19] it was 4.11 µM; in data set [20], 1 µM. For the same molecule, the IC50 was found to be 7.06 µM in [21]; 1.97 µM in data set [22]; 12.6 µM in data set [23]; 8.53 µM in data set [24]; 2.67 µM in data set [25]; 15.8 µM in data set [26]. Besides, the IC50 in data set [27] worked out at 14.1 µM.

With `Cc1ccc(S(=O)(=O)Nc2ccccc2C(=O)Nc2nc3cc(O)c(O)cc3s2)cc1`, the IC50 at Nonstructural protein 3 [16] was 6.43 µM; in data set [17], 15.3 µM; at Nonstructural protein 3 [28], 5.36 µM.

The values are drawn from ChEMBL document CHEMBL4334527, “Proline-Based Allosteric Inhibitors of Zika and Dengue Virus NS2B/NS3 Proteases” (J Med Chem, 2019).
